Test results taken from patent US20260053932A1, “COMPOUNDS AND METHODS FOR THE TARGETED DEGRADATION OF ANDROGEN RECEPTOR AND ASSOCIATED METHODS OF USE” (Arvinas Operations, Inc., priority 2020, published 2026).

The molecules below were run on androgen receptor (AR) in LNCaP and/or VCaP cells (assay: Androgen Receptor ELISA assay (AR degradation)). Conditions: LNCaP and/or VCaP cells; 5 hours incubation; media with R1881; read-out: DC50 Code* (degradation of AR ELISA).
Assay type: cell-based
Description: Androgen Receptor ELISA Assay. […] The protocols used with VCaP cells are described below.
The cells were grown for a minimum of 3 days.
(2)(i) A 10× stock plate in media was made; (ii) 2.5 μL of the 1000× stock was transferred to a new 10× stock plate (use 12 channel pipet, start at A (DMSO control) work thru H. When 247.5 µL of media was added to this plate, it served as a 10× stock; (iii) made media+1 nM R1881 for making 10× stock plate; (iv) added 247.5 μL of media with 1 nM R1881 to each well of the 10× stock plate, mix.
Then 22 μL of 10× stock was added to cells and incubated for 5 hours. […] Media was aspirated, and 100 μL 1× cell lysis buffer/well was added. The cells were placed on a shaker located in a cold room for 10 minutes and shaken at speed 7. The lysate mixture was mix and 20 μL transferred to 100 μl of Diluent in ELISA plate (0.15 μg/ml-[…]). The lysate-diluent mixture was store at 4° C. overnight on a shaker located in a cold room at speed 5 (gentle swirl).
The lysate-diluent mixture was shaken for 30 minutes at 37° C. The mouse AR antibody, anti-mouse antibody, TMB, and STOP solution were allowed to come to room temperature. The 1×ELISA buffer included in kit was made and loaded in reservoir. Media from the plate was discarded, the ELISA plate was tapped hard on paper towel, and washed 4×200 μl ELISA wash buffer using a plate washer for the first three washes and an eight channel aspirator for the fourth wash to more thoroughly aspirate the solution.
Next, 100 μL/well of mouse AR detection Ab was added; the plate was covered and shaken at 37° C. for 1 hour; media was discarded from the plates, the plates tapped on a paper towel and washed four times with 200 μL ELISA wash buffer with a plate washer for the first three washes and an eight channel aspirator for the fourth wash; 100 μL/well of anti-mouse—HRP conjugated Ab (comes with the kit) was added; the plates was cover and shaken at 37° C. for 30 minutes; the TMB reagent was allowed to come to room temperature; the media from the plate was discarded, the plates tapped on paper towel, and washed four times with 200 μL ELISA wash buffer with a plate washer for the first three washes and an eight channel aspirator for the fourth wash; plates were tapped on paper towel; 100 μL TMB was added to each well and the plate shaken for 2 minutes—while watching color. STOP solution (100 μL) was added when light blue color developed.
Data was analyzed and plotted using GraphPad Prism software. Exemplary compounds of Tables 1A, 1B, and 1C were assayed and the data shown below in Tables 2A, 2B, and 2C. DC50 (nM) categories (degradation of AR ELISA in LNCaP and/or VCaP cells) of Tables 2A, 2B, and 2C are as follows: A<1 nM; 1≤B<10 nM; 10≤C<100 nM; D≥100 nM. Dmax (%) categories (degradation of AR ELISA in LNCaP and/or VCaP cells) of Table 2 are as follows: A≥70; 50≤B<70; C<50

DC50	Structure (SMILES)
> 100 nM	COc1cc(O[C@H]2C[C@H](N(CC3CCN(c4ncc(C(=O)N[C@@H]5CC[C@H](Oc6cc(C)c(C#N)c(C)c6)C5)cn4)CC3)C(C)C)C2)cc2c1C(=O)N(C1CCC(=O)NC1=O)C2=O (stereo partly drawn) [Compound 4, N-((1R,3S)-3-(4-cyano-3,5-dimethylphenoxy)cyclopentyl)-2-(4-((((1r,3R)-3-((2-(2,6-dioxopiperidin-3-yl)-7-methoxy-1,3-dioxoisoindolin-5-yl)oxy)cyclobutyl) (isopropyl)amino)methyl)piperidin-1-yl)pyrimidine-5-carboxamide]
< 1 nM	N#Cc1ccc(O[C@H]2CC[C@H](NC(=O)c3ccc(N4CCC(CN[C@H]5C[C@H](Oc6ccc7c(c6)C(=O)N(C6CCC(=O)NC6=O)C7=O)C5)CC4)nn3)CC2)cc1Cl (mixture of isomers) [Compound 51, rac-N-((1r,4r)-4-(3-chloro-4-cyanophenoxy)cyclohexyl)-6-(4-((((1r,3r)-3-((2-(2,6-dioxopiperidin-3-yl)-1,3-dioxoisoindolin-5-yl)oxy)cyclobutyl)amino)methyl)piperidin-1-yl)pyridazine-3-carboxamide]
> 100 nM	COc1cc(O[C@H]2C[C@H](N(CC3CCN(c4ncc(C(=O)NC5CC6(C5)CN(Cc5cc(C)c(C#N)c(C)c5)C6)cn4)CC3)C(C)C)C2)cc2c1C(=O)N(C1CCC(=O)NC1=O)C2=O (mixture of isomers) [Compound 12, rac-N-(2-(4-cyano-3,5-dimethylbenzyl)-2-azaspiro[3.3]heptan-6-yl)-2-(4-((((1r,3r)-3-((2-(2,6-dioxopiperidin-3-yl)-7-methoxy-1,3-dioxoisoindolin-5-yl)oxy)cyclobutyl) (isopropyl)amino)methyl)piperidin-1-yl)pyrimidine-5-carboxamide]

Same assay, conditions: degradation of AR ELISA in LNCaP and/or VCaP cells; Table 2C; read-out: DC50 Code*

DC50	Structure (SMILES)
< 1 nM	CC1(C)[C@H](NC(=O)c2ccc(N3CCC(CN(CCN4CCOCC4)[C@H]4C[C@H](Oc5ccc6c(c5)C(=O)N(C5CCC(=O)NC5=O)C6=O)C4)CC3)cc2)C(C)(C)[C@H]1Oc1ccc(C#N)c(C#N)c1 (some centres unmarked) [compound 214, N-((1r,3r)-3-(3,4-dicyanophenoxy)-2,2,4,4-tetramethylcyclobutyl)-4-(4-((((1r,3r)-3-((2-(2,6-dioxopiperidin-3-yl)-1,3-dioxoisoindolin-5-yl)oxy)cyclobutyl)(2-morpholinoethyl)amino)methyl)piperidin-1-yl)benzamide]
< 1 nM	[2H]C([2H])([2H])Oc1cc(O[C@H]2C[C@H](N(CC3CCN(c4ccc(C(=O)N[C@H]5C(C)(C)[C@H](Oc6cc(C)c(C#N)c(C)c6)C5(C)C)cc4)CC3)C(C)C)C2)cc2c1C(=O)N(C1CCC(=O)NC1=O)C2=O (mixture of isomers) [compound 153, rac-N-((1r,3r)-3-(4-cyano-3,5-dimethylphenoxy)-2,2,4,4-tetramethylcyclobutyl)-4-(4-((((1r,3r)-3-((2-(2,6-dioxopiperidin-3-yl)-7-(methoxy-d3)-1,3-dioxoisoindolin-5-yl)oxy)cyclobutyl) (isopropyl)amino)methyl)piperidin-1-yl)benzamide]
< 1 nM	CC(C)N(CC1CCN(c2ncc(C(=O)N[C@H]3C(C)(C)[C@H](Oc4ccc(C#N)c(Cl)c4)C3(C)C)cn2)CC1)[C@H]1CC[C@H](Oc2ccc3c(c2)C(=O)N(C2CCC(=O)NC2=O)C3=O)CC1 (some centres unmarked) [compound 84, N-((1r,3r)-3-(3-chloro-4-cyanophenoxy)-2,2,4,4-tetramethylcyclobutyl)-2-(4-((((1r,4r)-4-((2-(2,6-dioxopiperidin-3-yl)-1,3-dioxoisoindolin-5-yl)oxy)cyclohexyl) (isopropyl)amino)methyl)piperidin-1-yl)pyrimidine-5-carboxamide]
< 1 nM	CC1(C)[C@H](NC(=O)c2ccc(N3CC4CN(CC5CCN(c6ccc7c(c6)C(=O)N(C6CCC(=O)NC6=O)C7=O)CC5)CC4C3)cc2)C(C)(C)[C@H]1Oc1ccc(C#N)c(Cl)c1 (some centres unmarked) [compound 107, N-((1r,3r)-3-(3-chloro-4-cyanophenoxy)-2,2,4,4-tetramethylcyclobutyl)-4-(5-((1-(2-(2,6-dioxopiperidin-3-yl)-1,3-dioxoisoindolin-5-yl)piperidin-4-yl)methyl)hexahydropyrrolo [3,4-c]pyrrol-2(1H)-yl)benzamide]
< 1 nM	Cc1cc(O[C@H]2C(C)(C)[C@H](NC(=O)c3cnc(N4CCC(CN(C(C)C)[C@H]5C[C@H](Oc6ccc7c(c6)C(=O)N(C6CCC(=O)NC6=O)C7=O)C5)CC4)cn3)C2(C)C)cc(C)c1C#N (some centres unmarked) [compound 112, N-((1r,3r)-3-(4-cyano-3,5-dimethylphenoxy)-2,2,4,4-tetramethylcyclobutyl)-5-(4-((((1r,3r)-3-((2-(2,6-dioxopiperidin-3-yl)-1,3-dioxoisoindolin-5-yl)oxy)cyclobutyl) (isopropyl)amino)methyl)piperidin-1-yl)pyrazine-2-carboxamide]
< 1 nM	COCCN(CC1CCN(c2ccc(C(=O)N[C@H]3C(C)(C)[C@H](Oc4cc(C)c(C#N)c(C)c4)C3(C)C)nn2)CC1)[C@H]1C[C@H](Oc2ccc3c(c2)C(=O)N(C2CCC(=O)NC2=O)C3=O)C1 (some centres unmarked) [compound 121, N-((1r,3r)-3-(4-cyano-3,5-dimethylphenoxy)-2,2,4,4-tetramethylcyclobutyl)-6-(4-((((1r,3r)-3-((2-(2,6-dioxopiperidin-3-yl)-1,3-dioxoisoindolin-5-yl)oxy)cyclobutyl)(2-methoxyethyl)amino)methyl)piperidin-1-yl)pyridazine-3-carboxamide]
< 1 nM	COc1cc(O[C@H]2C[C@H](N(CC3CC4(C3)CN(c3cnc(C(=O)N[C@H]5C(C)(C)[C@H](Oc6cc(C)c(C#N)c(C)c6)C5(C)C)cn3)C4)C(C)C)C2)cc2c1C(=O)N(C1CCC(=O)NC1=O)C2=O (some centres unmarked) [compound 158, N-((1r,3r)-3-(4-cyano-3,5-dimethylphenoxy)-2,2,4,4-tetramethylcyclobutyl)-5-(6-((((1r,3r)-3-((2-(2,6-dioxopiperidin-3-yl)-7-methoxy-1,3-dioxoisoindolin-5-yl)oxy)cyclobutyl) (isopropyl)amino)methyl)-2-azaspiro[3.3]heptan-2-yl)pyrazine-2-carboxamide]
< 1 nM	CCN(CC1CCN(c2ccc(C(=O)N[C@H]3C(C)(C)[C@H](Oc4cc(C)c(C#N)c(C)c4)C3(C)C)cc2)CC1)[C@H]1C[C@H](Oc2ccc3c(c2)C(=O)N(C2CCC(=O)NC2=O)C3=O)C1 (some centres unmarked) [compound 168, N-((1r,3r)-3-(4-cyano-3,5-dimethylphenoxy)-2,2,4,4-tetramethylcyclobutyl)-4-(4-((((1r,3r)-3-((2-(2,6-dioxopiperidin-3-yl)-1,3-dioxoisoindolin-5-yl)oxy)cyclobutyl) (ethyl)amino)methyl)piperidin-1-yl) benzamide]
1 to 10 nM	CC1(C)[C@H](NC(=O)c2ccc(N3CCC(CN4CCN(c5ccc6c(c5)C(=O)N(C5(F)CCC(=O)NC5=O)C6=O)CC4)CC3)cc2)C(C)(C)[C@H]1Oc1ccc(C#N)c(Cl)c1 (mixture of isomers) [compound 129, N-((1r,3r)-3-(3-chloro-4-cyanophenoxy)-2,2,4,4-tetramethylcyclobutyl)-4-(4-((4-(2-(3-fluoro-2,6-dioxopiperidin-3-yl)-1,3-dioxoisoindolin-5-yl)piperazin-1-yl)methyl)piperidin-1-yl)benzamide]
< 1 nM	CCOc1cc(O[C@H]2C(C)(C)[C@H](NC(=O)c3ccc(N4CC(CN(C(C)C)[C@H]5C[C@H](Oc6ccc7c(c6)C(=O)N(C6CCC(=O)NC6=O)C7=O)C5)C4)cc3)C2(C)C)ccc1C#N (some centres unmarked) [compound 217, N-((1r,3r)-3-(4-cyano-3-ethoxyphenoxy)-2,2,4,4-tetramethylcyclobutyl)-4-(3-((((1r,3r)-3-((2-(2,6-dioxopiperidin-3-yl)-1,3-dioxoisoindolin-5-yl)oxy)cyclobutyl) (isopropyl)amino)methyl)azetidin-1-yl)benzamide]
< 1 nM	COCCN(CC1CCN(c2ncc(C(=O)N[C@H]3C(C)(C)[C@H](Oc4cc(C)c(C#N)c(C)c4)C3(C)C)cn2)CC1)[C@H]1C[C@H](Oc2ccc3c(c2)C(=O)N(C2CCC(=O)NC2=O)C3=O)C1 (some centres unmarked) [compound 91, N-((1r,3r)-3-(4-cyano-3,5-dimethylphenoxy)-2,2,4,4-tetramethylcyclobutyl)-2-(4-((((1r,3r)-3-((2-(2,6-dioxopiperidin-3-yl)-1,3-dioxoisoindolin-5-yl)oxy)cyclobutyl)(2-methoxyethyl)amino)methyl)piperidin-1-yl)pyrimidine-5-carboxamide]
